Like-named read-outs stand apart in the source and are kept apart here. Ends that are not written are not given here.
Tests used:
Het-1A cell line = assay: cells
Protocol: (§1) The human normal vaginal epithelial cell line VK2/E6E7 (ATCC® CRL-2616™) and human normal esophagus epithelial cell line Het-1A (ATCC® CRL-2692™) were used for cytotoxicity testing. VK2/E6E7 cell line was grown in Keratinocyte-Serum Free medium (GIBCO-BRL 17005-042) supplemented with 0.1 ng/ml human recombinant EGF, 0.05 mg/ml bovine pituitary extract, and 44.1 mg/L calcium chloride. […] Cell viability was measured by using CellTiter 96® Aqueous Non-Radioactive Cell Proliferation Assay (Promega, USA) and the colourimetric changes were determined at 490 nm using a microplate reader. […] Results were recorded by averaging three repeated experiments and each experiment was performed in duplicate.

VK2/E6E7 cell line = assay: cells
Protocol: as §1

C. albicans SC5314 = assay: Time killing assay; type: cell-based, Candida albicans; conditions: 2
Protocol: A fungal suspension was adjusted to a 0.5 McFarland turbidity standard with cell density of 1 × 10^6 to 5 × 10^6 cells/ml. 100 μL of adjusted yeast suspension was exposed to 900 μL of RPMI medium containing peptide, yielding a starting inoculum of approximately 10^5 cells/ml. The solutions were incubated at 37°C with agitation. At the predetermined time interval of 0, 1, 2, 4 and 6 hours, 10 μL or 30 μL of the samples were removed, serially diluted with phosphate-buffered saline (PBS) and plated on SDA plates to allow colony counts after 24 hours of incubation. Controls for yeast growth and antifungal agents were also performed. The lower limit of accurate and reproducible quantitation was 100 CFU/ml. Results were obtained from three independent experiments.

Candida strains = assay: MIC, broth microdilution, range stated over several Candida strains; type: cell-based, Candida spp.; conditions: 48 h
Protocol: (§2) C. albicans strains SC5314 and ATCC 90028, C. krusei ATCC 6258 and C. parapsilosis ATCC 22019 were used in the study. The strains were stored at −80°C in nutrient broth supplemented with 2.0% glycerol stock. Prior to experimentation, each strain was streaked for single colonies on Sabouraud Dextrose (SDA) agar plates and incubated overnight at 37°C.
(§3) Antifungal activity of the designed peptides was determined according to a standardized broth microdilution method (Clinical and Laboratory Standards Institute (CLSI) document M27-A2). Briefly, the yeast colonies from 24- hour-old cultures of Candida species were picked and resuspended in 5 mL of sterile 0.145 mol/L saline and adjusted to cell density of 1 × 10^6 to 5 × 10^6 cells/ml. The yeast stock suspension was then diluted to obtain a starting inoculum of 5.0 × 10^2 to 2.5 × 10^3 cells/ml. […] The drugs were dissolved in DMSO and prepared to a stock concentration of 25 mg/L and 50 mg/L, respectively. […] 100 μL of standardized yeast suspension was then added to each well. Plates were incubated for 48 hours at 37°C. The minimum inhibitory concentration (MIC) was defined as the lowest concentration that inhibited 90% growth of Candida species. The MICs were determined three times and each time in duplicate.

Candida albicans SC 5314 = assay: MIC, broth microdilution (CLSI M27-A2); type: cell-based; conditions: SC 5314, 48 h
Protocol: as §2, §3

[1] = test system: Candida albicans ATCC 90028; assay: MIC, broth microdilution (CLSI M27-A2); type: cell-based; conditions: ATCC 90028, 48 h
Protocol: as §2, §3

Candida krusei ATCC 6258 = assay: MIC, broth microdilution (CLSI M27-A2); type: cell-based; conditions: ATCC 6258, 48 h
Protocol: as §2, §3

[2] = test system: Candida parapsilosis ATCC 22019; assay: MIC, broth microdilution (CLSI M27-A2); type: cell-based; conditions: ATCC 22019, 48 h
Protocol: as §2, §3

human erythrocytes = assay: Haemolytic assay; type: cell-based
Protocol: Freshly collected human blood with heparin was centrifuged to remove the buffy coat. The erythrocytes were washed three times with PBS, centrifuged for 10 min at 2000 rpm at 10°C, and resuspended in PBS to 4% (vol/vol). […] PBS and 0.1% Triton X-100 were used as agents to induce 0 and 100% haemolysis, respectively. Plates were incubated for 1 hour at 37°C and centrifuged at 2000 rpm for 10 min. The supernatant (100 μL) was transferred to a 96-well flat-bottomed polystyrene plate, and the release of haemoglobin was monitored by measuring the absorbance at 560 nm using a microplate reader. Results were repeated three times and each time in duplicate. The percentage of haemolysis was calculated using the following formula: [drawing 2] where Ap and A100 represent the absorbance of erythrocytes treated with peptide and 0.1% Triton X-100. A0 is the absorbance of erythrocytes without treatment.

| Substance | IC50 (Het-1A cell line; 24 h) [µg/mL] | IC50 (Het-1A cell line; 48 h) [µg/mL] | IC50 (Het-1A cell line; 72 h) [µg/mL] | IC50 (VK2/E6E7 cell line; 24 h) [µg/mL] | IC50 (VK2/E6E7 cell line; 48 h) [µg/mL] | IC50 (VK2/E6E7 cell line; 72 h) [µg/mL] | % killing (C. albicans SC5314; SC5314, 4 h) [%] | mean log decrease in viable cells (C. albicans SC5314; SC5314, 4 h) [log CFU/mL] | MIC values, range (Candida strains) [µg/mL] | Minimum Inhibitory Concentration (MIC) (Candida albicans SC 5314) [µg/mL] | Minimum Inhibitory Concentration (MIC) [1] [µg/mL] | Minimum Inhibitory Concentration (MIC) (Candida krusei ATCC 6258) [µg/mL] | Minimum Inhibitory Concentration (MIC) [2] [µg/mL] | Haemolytic activity HC10 (human erythrocytes) [mg/L] | Haemolytic activity HC50 (human erythrocytes) [mg/L] | % killing (C. albicans SC5314; SC5314, 6 h) [%] | mean log decrease in viable cells (C. albicans SC5314; SC5314, 6 h) [log CFU/mL] | Haemolytic activity HC10 (human erythrocytes; red cells of human, 1 h) [mg/L] | Haemolytic activity HC50 (human erythrocytes; red cells of human, 1 h) [mg/L] |
| --- | --- | --- | --- | --- | --- | --- | --- | --- | --- | --- | --- | --- | --- | --- | --- | --- | --- | --- | --- |
| GVIDAAKKVVNVLKNLF-NH2 [Uperin 3.6, reference compound] | 17.60 ± 2.52 | 17.94 ± 1.96 | 23.23 ± 2.98 | 17.14 ± 4.32 | 23.59 ± 1.18 | 24.69 ± 6.02 | > 99.99 | 5.54 ± 0.13 | 64 to 128 | 64 | 128 | 64 | 128 | > 256 | > 256 | – | – | – | – |
| GIWKKWIKKVVNVLKNLF-NH2 [KU1] | 3.61 ± 0.19 | 4.59 ± 0.26 | 7.27 ± 1.17 | 4.28 ± 0.60 | 4.71 ± 0.22 | 7.84 ± 1.99 | – | – | 16 to 32 | 16 | 32 | 32 | 16 | – | – | 99.82 | 2.95 ± 0.59 | 8.07 ± 1.60 | 58.19 ± 2.04 |
| GVIKAAKKVVNVLKNLF-NH2 [Upn-lys4] | 14.12 ± 4.35 | 14.71 ± 4.44 | 23.64 ± 2.82 | 15.45 ± 2.64 | 16.55 ± 0.55 | 19.98 ± 1.84 | – | – | – | 64 | 128 | 64 | 64 | – | – | 99.97 | 4.12 ± 1.36 | >256 | >256 |
| GIWKKWIKKWLKKLKNLF-NH2 [KU4] | 9.75 ± 1.34 | 10.47 ± 0.50 | 14.53 ± 1.58 | 8.75 ± 1.04 | 10.55 ± 2.33 | 19.46 ± 4.29 | – | – | 16 to 64 | 32 | 64 | 16 | 32 | – | > 256 | > 99.99 | 5.55 ± 0.08 | 49.38 ± 5.14 | – |
| GIWKKWIKKWLKVLKNLF-NH2 [KU3] | 4.33 ± 0.52 | 4.62 ± 0.65 | 6.36 ± 1.34 | 4.43 ± 0.39 | 5.32 ± 0.84 | 7.83 ± 1.41 | – | – | 8 to 16 | 8 | 16 | 16 | 8 | – | – | 99.94 | 3.28 ± 0.30 | 5.65 ± 0.85 | 55.20 ± 11.90 |

Reference: publication PMC4603303, “Activity of Novel Synthetic Peptides against Candida albicans” (Scientific Reports, 2015)
